The values below come from US8999942B2, “Polyol modified aminoglycoside-lipid conjugates” (University of Manitoba, priority 2010, dated 2015).

In assay [1] the test system is Streptococcus pneumoniae ATCC 49619. Briefly: MIC, broth macrodilution (CLSI), S. pneumoniae ATCC 49619. The class given is cell-based. The procedure, abridged:
(§1)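 Broth macrodilution per CLSI methodology against ATCC reference strains and clinical isolates from the CAN-ICU study. MIC reported in μg/mL.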

The subject of assay [2] is methicillin-resistant Staphylococcus epidermidis (MRSE) CAN-ICU 61589. As to the kind of experiment: MIC, broth macrodilution (CLSI), MRSE. The class given is cell-based. The conditions noted are these: methicillin-resistant S. epidermidis, footnote (ATCC 14990). The procedure, abridged:
as §1

Assay [3] concerns E. coli (Amikacin MIC 32) CAN-ICU 63074. Briefly: MIC, broth macrodilution (CLSI), E. coli CAN-ICU 63074. The class given is cell-based. The procedure, abridged:
as §1

For assay [4], the system named is S. epidermidis ATCC 14990. As to the kind of experiment: MIC, broth macrodilution (CLSI), S. epidermidis. The class given is cell-based, Staphylococcus epidermidis. As to conditions: footnote ATCC 1490. The procedure, abridged: as §1
Assay [5] has as its system Acinetobacter baumanni (CAN-ICU 63169). As to the kind of experiment: MIC, broth macrodilution (CLSI), A. baumannii. It is filed as cell-based. As to conditions: A. baumannii CAN-ICU 63169. The procedure, abridged: as §1
Another assay deals with S. aureus ATCC 29213. Briefly: MIC, broth macrodilution (CLSI), S. aureus ATCC 29213. The class given is cell-based, Staphylococcus aureus. The procedure, abridged:
as §1

Assay [6] relates to Stenotrophomonas maltophilia (CAN-ICU 62585). Briefly: MIC, broth macrodilution (CLSI), S. maltophilia. The class given is cell-based. As to conditions: for Minimal Inhibitory Concentration (MIC): S. maltophilia, footnote CAN-ICU 62584. The procedure, abridged: as §1
The subject of assay [7] is E. coli (Gentamicin-resistant) CAN-ICU 61714. As to the kind of experiment: MIC, broth macrodilution (CLSI), gentamicin-resistant E. coli. It is filed as cell-based. The conditions noted are these: footnote ATCC 6174 (gentamicin resistant). The procedure, abridged: as §1
The test system of assay [8] is S. aureus, MRSA, S. epidermidis and MRSE. As to the kind of experiment: MIC, S. aureus, MRSA, S. epidermidis and MRSE. The class given is cell-based, Staphylococcus aureus, Staphylococcus epidermidis. The method, then: (§2) All compounds were tested against American Type Culture Collection (ATCC) reference strains as well as clinical isolates from the Canadian Intensive Care Unit (CAN-ICU) study (Zhanel, et al., 2008). […] Antibacterial activity against Gram-positive and Gram-negative microorganisms was performed via broth macrodilution tests using CLSI methodology (Clinical and Laboratory Standards Institute, 2006). The minimum inhibitory concentration (MIC) in μg/mL of the aminoglycoside-derived amphiphilic polycarbamates and polyethers were determined using established methods (Clinical and Laboratory Standards Institute, 2006) and are shown in Tables 1 and 2, respectively.

The next assay concerns S. pneumoniae ATCC 13883. As to the kind of experiment: MIC, broth macrodilution (CLSI), S. pneumoniae ATCC 13883. The class given is cell-based. The procedure, abridged: as §1
The next assay has as its system E. coli ATCC 25922. As to the kind of experiment: MIC, broth macrodilution (CLSI), E. coli ATCC 25922. It is filed as cell-based. The procedure, abridged:
as §1

Assay [9] has as its system Pseudomonas aeruginosa ATCC 27853. Briefly: MIC, broth macrodilution (CLSI), P. aeruginosa ATCC 27853. The class given is cell-based. The procedure, abridged:
as §1

The subject of another assay is three strains of E. coli. As to the kind of experiment: MIC, three strains of E. coli. It is filed as cell-based. The method, then:
as §2

For assay [10], the system named is P. aeruginosa (Gent-R) CAN-ICU 62308. As to the kind of experiment: MIC, broth macrodilution (CLSI), P. aeruginosa CAN-ICU 62308. It is filed as cell-based, Pseudomonas aeruginosa. The procedure, abridged: as §1
Assay [11] relates to methicillin-resistant Staphylococcus aureus (MRSA) ATCC 33592. Briefly: MIC, broth macrodilution (CLSI), MRSA ATCC 33592. It is filed as cell-based. As to conditions: for Minimal Inhibitory Concentration (MIC): MRSA, methicillin-resistant S. aureus ATCC 33592. The procedure, abridged:
as §1

The subject of the next assay is Gram-negative strains. Briefly: Gram-negative antibacterial activity. It is filed as cell-based. As to conditions: Gram-negatives E. coli and S. maltophilia. The method, then: as §2
Assay [12] concerns P. aeruginosa (two strains). Briefly: MIC, P. aeruginosa two strains. It is filed as cell-based, Pseudomonas aeruginosa. Here is the method:
as §2

The test system of assay [13] is Gram-positive and Gram-negative strains tested. Briefly: Antibacterial activity, strains tested. It is filed as cell-based. The method, then:
as §2

One may read the MIC as the least concentration at which growth counts as inhibited. Low readings indicate greater potency, high ones weaker potency. As for `NCC1OC(OC2C(N)CC(N)C(OC(=O)Nc3ccccc3)C2OC2OC(COC(=O)Nc3ccccc3)C(OC3OC(CN)C(OC(=O)Nc4ccccc4)C(OC(=O)Nc4ccccc4)C3N)C2OC(=O)Nc2ccccc2)C(N)C(OC(=O)Nc2ccccc2)C1OC(=O)Nc1ccccc1.O=C(O)C(F)(F)F.O=C(O)C(F)(F)F.O=C(O)C(F)(F)F.O=C(O)C(F)(F)F.O=C(O)C(F)(F)F.O=C(O)C(F)(F)F` (stereo not shown) [Compound 1], the “Minimal Inhibitory Concentration (MIC)” value in assay [1] worked out at 16 µg/mL; in [2] it was 0.5 µg/mL; in assay [3], 16 µg/mL; in assay [4], 0.5 µg/mL; in assay [5] it was 32 µg/mL; in the assay on S. aureus ATCC 29213 it was 1 µg/mL. In addition, the “Minimal Inhibitory Concentration (MIC)” value in assay [6] turned out to be 4 µg/mL; in assay [7] it was 16 µg/mL; in the assay on S. pneumoniae ATCC 13883, 256 µg/mL; in the assay with E. coli ATCC 25922 it was 32 µg/mL; in assay [9], 256 µg/mL; in [10] it was 128 µg/mL. Moreover, the “Minimal Inhibitory Concentration (MIC)” value in assay [11] turned out to be 1 µg/mL. The “MIC fold lower compared to amphiphilic di- and tetracationic lipopeptides (Serrano et al., 2009)” value in assay [6] (against S. maltophilia) was 32-64 fold. Besides, the “fold increased susceptibility over Neomycin B” value in assay [6] (against multidrug-resistant S. maltophilia) is “over 128 fold”. The MIC in assay [8] is no more than 1 µg/mL; in the assay on three strains of E. coli (three strains of E. coli), 16 to 32 µg/mL. Moreover, in the assay with three strains of E. coli (Neomycin B susceptible E. coli), the “MIC fold reduced compared to Neomycin B sulfate” value is given as 2-8 fold. Also, the “fold enhancement compared to unmodified Neomycin B” value in [11] (against MRSA) was determined as 256 fold.
As to `CCCCCCNC(=O)OCC1OC(OC2C(NC(=O)C(CCN)OC(=O)NCCCCCC)CC(N)C(OC3OC(CN)C(OC(=O)NCCCCCC)C(OC(=O)NCCCCCC)C3OC(=O)NCCCCCC)C2OC(=O)NCCCCCC)C(OC(=O)NCCCCCC)C(N)C1OC(=O)NCCCCCC.O=C(O)C(F)(F)F.O=C(O)C(F)(F)F.O=C(O)C(F)(F)F.O=C(O)C(F)(F)F` (stereo not shown) [Compound 9], the “Minimal Inhibitory Concentration (MIC)” value is 32 µg/mL in [1]; 4 µg/mL in [2]; 4 µg/mL in assay [3]; 4 µg/mL in assay [4]; greater than 128 µg/mL in assay [5]; 4 µg/mL with S. aureus ATCC 29213. Also, the “Minimal Inhibitory Concentration (MIC)” value in assay [6] is 16 µg/mL; in [7], 8 µg/mL; with S. pneumoniae ATCC 13883, greater than 128 µg/mL; with E. coli ATCC 25922, 4 µg/mL; in assay [9] it was 64 µg/mL; in assay [10], 16 µg/mL. For the same compound, the “Minimal Inhibitory Concentration (MIC)” value in [11] came out at 4 µg/mL. Further, in the assay on Gram-negative strains, the “fold improvement compared to 6” value is listed as 8-32 fold.
As for `NCC1OC(OC2C(N)CC(N)C(OCc3ccccc3)C2OC2OC(COCc3ccccc3)C(OC3OC(CN)C(OCc4ccccc4)C(OCc4ccccc4)C3N)C2OCc2ccccc2)C(N)C(OCc2ccccc2)C1OCc1ccccc1.O=C(O)C(F)(F)F.O=C(O)C(F)(F)F.O=C(O)C(F)(F)F.O=C(O)C(F)(F)F.O=C(O)C(F)(F)F.O=C(O)C(F)(F)F` (stereo not shown) [Compound 11], the “Minimal Inhibitory Concentration (MIC)” value in assay [1] was determined as 16 µg/mL; in assay [2] it was 2 µg/mL; in [3], 4 µg/mL; in assay [4], 2 µg/mL; in assay [5], 16 µg/mL; in the assay with S. aureus ATCC 29213, 4 µg/mL. The “Minimal Inhibitory Concentration (MIC)” value is 8 µg/mL in [6]; 16 µg/mL in assay [7]; 8 µg/mL in the assay with S. pneumoniae ATCC 13883; 8 µg/mL in the assay with E. coli ATCC 25922; 32 µg/mL in [9]; 64 µg/mL in assay [10]. Further, the “Minimal Inhibitory Concentration (MIC)” value in [11] is 4 µg/mL. The “fold decrease in activity compared to polycarbamate analog 1” value in assay [6] (against S. maltophilia) is recorded as 2 fold. In addition, the MIC lay in the range of 2 to 4 µg/mL in assay [8] and 32 to 64 µg/mL in assay [12].
As for `COCC1OC(OC2C(OC)C(N)CC(N)C2OC2OC(CN)C(OC)C(OC)C2N)C(OC)C1OC1OC(CN)C(OC)C(OC)C1N.O=C(O)C(F)(F)F.O=C(O)C(F)(F)F.O=C(O)C(F)(F)F.O=C(O)C(F)(F)F.O=C(O)C(F)(F)F.O=C(O)C(F)(F)F` (stereo not shown) [Compound 14], the “Minimal Inhibitory Concentration (MIC)” value in assay [1] was greater than 256 µg/mL; in assay [2], greater than 256 µg/mL; in assay [3], greater than 256 µg/mL; in [4] it was 256 µg/mL; in assay [5], greater than 256 µg/mL; in the assay on S. aureus ATCC 29213, greater than 256 µg/mL. The “Minimal Inhibitory Concentration (MIC)” value (in assay [6]; in assay [7]; in the assay on S. pneumoniae ATCC 13883; in the assay on E. coli ATCC 25922; in assay [9]; in [10]) was greater than 256 µg/mL each time. The “Minimal Inhibitory Concentration (MIC)” value in assay [11] is greater than 256 µg/mL. In addition, the “antibacterial activity (in words)” value in assay [13] was “inactivity”.
In the case of `COCC1OC(OC2C(N)CC(N)C(OC3OC(CN)C(OC)C(OC)C3OC)C2OC)C(OC)C(N)C1OC.O=C(O)C(F)(F)F.O=C(O)C(F)(F)F.O=C(O)C(F)(F)F.O=C(O)C(F)(F)F` (stereo not shown) [Compound 17], the “Minimal Inhibitory Concentration (MIC)” value in assay [1] is greater than 256 µg/mL; in [2], greater than 256 µg/mL; in assay [3] it was greater than 256 µg/mL; in assay [4], 256 µg/mL; in assay [5], greater than 256 µg/mL; with S. aureus ATCC 29213, greater than 256 µg/mL. Moreover, the “Minimal Inhibitory Concentration (MIC)” value (in assay [6]; in assay [7]; in the assay with S. pneumoniae ATCC 13883; with E. coli ATCC 25922; in [9]; in assay [10]) was greater than 256 µg/mL in each case. Moreover, the “Minimal Inhibitory Concentration (MIC)” value in [11] was greater than 256 µg/mL. The “antibacterial activity (in words)” value in assay [13] is recorded as “inactivity”.
`COCC1OC(OC2C(NC(=O)C(CCN)OC)CC(N)C(OC3OC(CN)C(OC)C(OC)C3OC)C2OC)C(OC)C(N)C1OC.O=C(O)C(F)(F)F.O=C(O)C(F)(F)F.O=C(O)C(F)(F)F.O=C(O)C(F)(F)F` (stereo not shown) [Compound 20]: the “Minimal Inhibitory Concentration (MIC)” value (in assay [1]; in [2]; in [3]; in assay [4]; in assay [5]; in the assay on S. aureus ATCC 29213) was greater than 256 µg/mL throughout. Moreover, the “Minimal Inhibitory Concentration (MIC)” value (in [6]; in [7]; in the assay with S. pneumoniae ATCC 13883; in the assay with E. coli ATCC 25922; in assay [9]; in assay [10]) was greater than 256 µg/mL each time. Also, in [11], the “Minimal Inhibitory Concentration (MIC)” value is greater than 256 µg/mL. In addition, the “antibacterial activity (in words)” value in assay [13] is reported as “inactivity”.
